Source: PubChem BioAssay AID248 (DTP/NCI, 2004)
Several values for one entry are separate records, joined by “and”; a condition that tells them apart may be missing. Identical values can stand only once. Inconclusive results and toxic doses are left out. No stated cut-off is given here; in the data, active means T/C of 150% or more; inactive means T/C below 125%.

Test system: L1210 leukemia ip in BDF1 mice, survival T/C
Assay: NCI In Vivo Anticancer Drug Screen. Data for tumor model L1210 Leukemia (intraperitoneal) in B6D2F1 (BDF1) mice
Details: endpoint: mean survival time, higher = longer survival
In short: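 Tumor cells were implanted, animals were treated, and survival was followed. The result divides the treated measurement by the vehicle-control measurement.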

[1] = dose: 100.0 mg/kg/injection, schedule: Q01DX009 (ip), vehicle: Klucel (hydroxypropylcellulose) (HPC)
[2] = dose: 200.0 mg/kg/injection, schedule: Q01DX009 (ip), vehicle: Klucel (hydroxypropylcellulose) (HPC)
[3] = dose: 400.0 mg/kg/injection, schedule: Q01DX009 (ip), vehicle: Klucel (hydroxypropylcellulose) (HPC)
[4] = dose: 100.0 mg/kg/injection, schedule: Q04DX003 (ip), vehicle: Klucel (hydroxypropylcellulose) (HPC)
[5] = dose: 200.0 mg/kg/injection, schedule: Q04DX003 (ip), vehicle: Klucel (hydroxypropylcellulose) (HPC)
[6] = dose: 400.0 mg/kg/injection, schedule: Q04DX003 (ip), vehicle: Klucel (hydroxypropylcellulose) (HPC)
[7] = dose: 100.0 mg/kg/injection, schedule: Q04DX002 (ip), vehicle: saline with Tween-80
[8] = dose: 200.0 mg/kg/injection, schedule: Q04DX002 (ip), vehicle: saline with Tween-80
[9] = dose: 25.0 mg/kg/injection, schedule: Q01DX009 (ip), vehicle: saline
[10] = dose: 50.0 mg/kg/injection, schedule: Q01DX009 (ip), vehicle: saline
[11] = dose: 100.0 mg/kg/injection, schedule: Q01DX009 (ip), vehicle: saline

Measured: T/C

Cc1ccc(CNC(=O)NC(C)(C)C)cc1
inactive: [1] 93 % of control | [2] 101 % of control | [3] 90 % of control

CNC(C)Cc1ccccc1 (stereo unspecified)
inactive: dose: 1.87 mg/kg/injection, schedule: Q04DX003 (ip), vehicle: saline 103 % of control and 116 % of control | dose: 3.75 mg/kg/injection, schedule: Q01DX009 (ip), vehicle: saline 95 % of control | dose: 3.75 mg/kg/injection, schedule: Q04DX003 (ip), vehicle: saline 106 % of control and 116 % of control | dose: 7.5 mg/kg/injection, schedule: Q01DX009 (ip), vehicle: saline 103 % of control and 98 % of control | dose: 7.5 mg/kg/injection, schedule: Q04DX003 (ip), vehicle: saline 108 % of control and 97 % of control | dose: 15.0 mg/kg/injection, schedule: Q01DX009 (ip), vehicle: saline 100 % of control and 96 % of control | dose: 15.0 mg/kg/injection, schedule: Q04DX003 (ip), vehicle: saline 95 % of control and 111 % of control | dose: 30.0 mg/kg/injection, schedule: Q01DX009 (ip), vehicle: saline 109 % of control and 112 % of control | dose: 30.0 mg/kg/injection, schedule: Q04DX003 (ip), vehicle: saline 92 % of control and 111 % of control | dose: 60.0 mg/kg/injection, schedule: Q01DX009 (ip), vehicle: saline 107 % of control and 108 % of control | dose: 60.0 mg/kg/injection, schedule: Q04DX003 (ip), vehicle: saline 95 % of control

CC1(C)C(=O)CC[C@@]2(C)C1=CC[C@@H]1[C@@H]2CC[C@@]2(C)[C@H]1CC[C@]2(C)O
inactive: dose: 50.0 mg/kg/injection, schedule: Q01DX Z (sc), vehicle: steriod suspending solution 91 % of control | dose: 250.0 mg/kg/injection, schedule: Q01DX Z (sc), vehicle: steriod suspending solution 96 % of control | dose: 500.0 mg/kg/injection, schedule: Q01DX Z (sc), vehicle: steriod suspending solution 101 % of control

c1ccc2c(c1)[nH]c1cc3ccncc3cc12
inactive: dose: 50.0 mg/kg/injection, schedule: Q01DX001 (ip), vehicle: saline 100 % of control | dose: 100.0 mg/kg/injection, schedule: Q01DX001 (ip), vehicle: Klucel (hydroxypropylcellulose) (HPC) 94 % of control | dose: 100.0 mg/kg/injection, schedule: Q01DX001 (ip), vehicle: saline 94 % of control | [4] 93 % of control | dose: 200.0 mg/kg/injection, schedule: Q01DX001 (ip), vehicle: Klucel (hydroxypropylcellulose) (HPC) 96 % of control | dose: 200.0 mg/kg/injection, schedule: Q01DX001 (ip), vehicle: saline 98 % of control | [5] 93 % of control | dose: 400.0 mg/kg/injection, schedule: Q01DX001 (ip), vehicle: Klucel (hydroxypropylcellulose) (HPC) 92 % of control | dose: 400.0 mg/kg/injection, schedule: Q01DX001 (ip), vehicle: saline 96 % of control | [6] 91 % of control

CC(C)(C)c1ccc(SC(=O)NCCCl)cc1
inactive: dose: 20.0 mg/kg/injection, schedule: Q04DX003 (ip), vehicle: Klucel (hydroxypropylcellulose) (HPC) 97 % of control | dose: 40.0 mg/kg/injection, schedule: Q04DX003 (ip), vehicle: Klucel (hydroxypropylcellulose) (HPC) 98 % of control | dose: 80.0 mg/kg/injection, schedule: Q04DX003 (ip), vehicle: Klucel (hydroxypropylcellulose) (HPC) 90 % of control | [4] 106 % of control | [5] 91 % of control

CCCCOC(=O)C1OC1(C)c1ccc(C)cc1 (stereo unspecified)
inactive: dose: 100.0 mg/kg/injection, schedule: Q01DX009 (ip), vehicle: saline with Tween-80 103 % of control | dose: 200.0 mg/kg/injection, schedule: Q01DX009 (ip), vehicle: saline with Tween-80 113 % of control | dose: 400.0 mg/kg/injection, schedule: Q01DX009 (ip), vehicle: saline with Tween-80 100 % of control

C=C(C)C1(CCCCC)C(=O)NC(=O)NC1=O
inactive: dose: 75.0 mg/kg/injection, schedule: Q01DX001 (ip), vehicle: saline 101 % of control | dose: 150.0 mg/kg/injection, schedule: Q01DX001 (ip), vehicle: saline 98 % of control

CC1=CC(=O)c2[nH]ncc2C1=O
inactive: dose: 10.0 mg/kg/injection, schedule: Q01DX001 (ip), vehicle: water 93 % of control

C=C1c2c(Cl)cccc2C(CC)(CC)c2cccc(Cl)c21
inactive: dose: 100.0 mg/kg/injection, schedule: Q04DX003 (ip), vehicle: saline with Tween-80 94 % of control | dose: 200.0 mg/kg/injection, schedule: Q04DX003 (ip), vehicle: saline with Tween-80 94 % of control | dose: 400.0 mg/kg/injection, schedule: Q04DX003 (ip), vehicle: saline with Tween-80 92 % of control

CCc1ccccc1NC(=O)Nc1ccccc1OC
inactive: [1] 92 % of control | [4] 93 % of control | [2] 94 % of control | [5] 93 % of control | [3] 100 % of control | [6] 90 % of control

CC[N+](CC)(CC)CCCCCCCC[N+](CC)(CC)CC
inactive: dose: 0.78 mg/kg/injection, schedule: Q01DX009 (ip), vehicle: water 110 % of control | dose: 0.78 mg/kg/injection, schedule: Q04DX003 (ip), vehicle: saline 107 % of control | dose: 1.56 mg/kg/injection, schedule: Q01DX009 (ip), vehicle: water 111 % of control | dose: 1.56 mg/kg/injection, schedule: Q04DX003 (ip), vehicle: saline 104 % of control

O=C(Cc1ccccc1)NCc1ccc(Cl)cc1
inactive: [7] 96 % of control | [8] 101 % of control | dose: 400.0 mg/kg/injection, schedule: Q04DX002 (ip), vehicle: saline with Tween-80 114 % of control

Cc1cccc(C(=O)OCc2ccccc2CN(C)C)c1
inactive: dose: 75.0 mg/kg/injection, schedule: Q04DX002 (ip), vehicle: Klucel (hydroxypropylcellulose) (HPC) 91 % of control | dose: 150.0 mg/kg/injection, schedule: Q04DX002 (ip), vehicle: Klucel (hydroxypropylcellulose) (HPC) 94 % of control | dose: 300.0 mg/kg/injection, schedule: Q04DX002 (ip), vehicle: Klucel (hydroxypropylcellulose) (HPC) 94 % of control

CCC[CH2][Sn]([S][Sn]([CH2]CCC)([c]1ccccc1)[c]1ccccc1)([c]1ccccc1)[c]1ccccc1
inactive: [7] 96 % of control | [8] 103 % of control

COC(=O)C(Br)CBr (stereo unspecified)
inactive: [9] 100 % of control | [10] 105 % of control | [11] 98 % of control and 105 % of control | dose: 100.0 mg/kg/injection, schedule: Q04DX003 (ip), vehicle: saline 102 % of control | dose: 200.0 mg/kg/injection, schedule: Q04DX003 (ip), vehicle: saline 116 % of control

CN1C2CCC1CC(OC1c3ccccc3CCc3ccccc31)C2 (stereo unspecified)
inactive: dose: 6.25 mg/kg/injection, schedule: Q01DX009 (ip), vehicle: saline 105 % of control | dose: 12.5 mg/kg/injection, schedule: Q01DX009 (ip), vehicle: saline 104 % of control | [9] 101 % of control | [10] 101 % of control

COc1cccc2c1C(=O)c1c(OC)c(CO)cc(OC)c1C2=O
inactive: dose: 12.5 mg/kg/injection, schedule: Q01DX009 (ip), vehicle: water 93 % of control | dose: 25.0 mg/kg/injection, schedule: Q01DX009 (ip), vehicle: water 91 % of control | dose: 50.0 mg/kg/injection, schedule: Q01DX009 (ip), vehicle: water 87 % of control | dose: 100.0 mg/kg/injection, schedule: Q01DX009 (ip), vehicle: water 97 % of control | dose: 200.0 mg/kg/injection, schedule: Q01DX009 (ip), vehicle: water 95 % of control

CC(=O)CC(O)(C(F)(F)F)C(F)(F)F
inactive: [11] 105 % of control | dose: 200.0 mg/kg/injection, schedule: Q01DX009 (ip), vehicle: saline 101 % of control | dose: 400.0 mg/kg/injection, schedule: Q01DX009 (ip), vehicle: saline 93 % of control
